# Legend:
# MMP-9 = MMP-9 activity in sera of (NZB×NZW)F1 mice (gel zymography); type: in vivo; conditions: 300 μg s.c. once a week from age 7 months; sera after 5 injections; FIG. 23
# Method: (§1) Induction and treatment of experimental SLE. In order to induce experimental SLE, BALB/c mice were immunized with 1-2 μg of the human mAb 16/6Id and boosted 3 weeks later. For the prevention of experimental SLE, mice were given hCDR1 or hCDR3 (mCDR1 or revmCDR1 as control peptide in Example 12) intravenously (i.v.) or s.c. concomitant with the immunization, and were injected weekly thereafter for 5 weeks. Treatment of an established disease started three and a half months following disease induction with the 16/6Id, when clinical manifestations were already observed. In Example 12, mice received 10 weekly injections (i.v. or s.c.) of mCDR1 or revmCDR1 at a dose of 100 μg/mouse. Prevention and treatment of SLE-like disease in (NZB×NZW)F1 mice with the hCDR1 or mCDR1 peptide. For prevention of SLE, mice at the age of 2 months, before disease manifestations are observed, were injected s.c. with hCDR1 (or mCDR1 in Example 12, 250 μg/mouse) once a week for 10 weeks. To treat an established disease, mice at the age of 5-7 months were injected with hCDR1 (in Example 12, mCDR1 s.c., 250 μg/mouse) once a week for 10 weeks. Proliferative Responses. PBL were isolated from heparinized venous blood by Ficoll-Hypaque (Pharmacia) density-gradient centrifugation. All assays were performed, in triplicate, in flat-bottomed microtiter plates (Falcon, Becton Dickinson, Oxmard, Calif., USA) in which 2×10^5 PBL were cultured in enriched RPMI-1640 as described (Dayan et al., 2000). The PBL were exposed to various concentrations (0.1-40 μg/well) of the human anti-DNA 16/6Id mAb with and without the addition of the various CDR-based peptides at a concentration of at least 10-fold excess over that of the 16/6Id. Phytohemagglutinin (PHA; 2 μg/well) was used as a control for culture conditions at each experiment. The cultures were incubated in 7.5% CO2 at 37° C. for 6 days. Eighteen hours before the cells were harvested, [^3H]-thymidine (0.5μ Ci of 5 Ci/mmol) (Nuclear Research Center, Negev, Israel) was added to all cultures. Results are expressed as the mean thymidine incorporation in counts per minute (CPM) of triplicate culture±SD, or as stimulation index (S.I.; the ratio of mean CPM at the optimal concentration of the human 16/6Id to the mean CPM in the presence of medium alone). […] TGF-β was determined by an ELISA. […] The substrate solution used was TMB color Reagent (Helix Diagnostics, West Sacramento, Calif.), and enzyme activity was evaluated by using 570- and 630-nm filters. […] Proteinuria was measured semiquantitatively by using Combistix kit (Ames Division, Bayer Diagnostics, Newbury, U.K.). White blood cells (WBC, for leukopenia) were counted after a 10-fold dilution of heparinized blood in distilled water containing 1% acetic acid (vol/vol). […]
# BALB/c-derived LNC = assay: In vivo inhibition of proliferation of BALB/c LNC to the human 16/6Id mAb; design: species or system mice
# Method: Because our aim was to test the inhibitory capacity of the peptides based on the CDR of the human 16/6Id autoantibody, it was of importance to find out whether peptides hCDR1 and hCDR3 are capable of inhibiting the priming to the whole molecule of the human 16/6Id mAb. To this end, BALB/c and SJL mice were primed with the human 16/6Id mAb (2 μg/mouse) in CFA intradermally in the hind footpads. […] Ten days following immunization, the mice were sacrificed and their LNCs were tested in vitro for their ability to proliferate to different concentrations (0.1-10 μg/well) of the human anti-DNA 16/6Id mAb.
# The results are presented as maximum % inhibition of the proliferation to the immunizing human 16/6Id mAb of lymph node cells of mice immunized and treated with the peptides hCDR1 and hCDR3 as compared with mice that were immunized with the 16/6Id mAb but were not treated with the peptides.
# In another experiment, BALB/c mice were immunized with 1 μg human 16/6Id in CFA, intradermally in the hind footpads, and either were injected with hCDR1 s.c., 300 μg/mouse in PBS, or were not further treated. Ten days later the mice were sacrificed and their LNC were tested for their ability to proliferate in vitro to the human 16/6Id. Thus, popliteal LNCs (0.5×10^6) were incubated in the presence of various concentrations (0.1-10 μg/well) of the human anti-DNA 16/6Id mAb. At the end of 4 days incubation, ^3H-thymidine was added to the cultures for the last 18 hours of incubation. Cells were then harvested and radioactivity counted.
# [1] = test system: lymph node cells of the BALB/c mice; assay: Cytokine production by 16/6Id-stimulated LNC of treated BALB/c mice (ELISA); type: in vivo; conditions: BALB/c mice immunized with 16/6Id, hCDR1 50 μg, LNC stimulated with 16/6Id
# Method: as §1, with “All assays were performed, in triplicate, in flat-bottomed microtiter plates (Falcon, Becton Dickinson, Oxmard, Calif., USA) in which 2×10^5 PBL were cultured in enriched RPMI-1640 as described (Dayan et al., 2000). The PBL were exposed to various concentrations (0.1-40 μg/well) of the human anti-DNA 16/6Id mAb with and without the addition of the various CDR-based peptides at a concentration of at least 10-fold excess over that of the 16/6Id. Phytohemagglutinin (PHA; 2 μg/well) was used as a control for culture conditions at each experiment. The cultures were incubated in 7.5% CO2 at 37° C. for 6 days. Eighteen hours before the cells were harvested, [^3H]-thymidine (0.5μ Ci of 5 Ci/mmol) (Nuclear Research Center, Negev, Israel) was added to all cultures.” left out
sequence,measurement,setting,value
"GYYWSWIRQPPGKGEEWIG (Human) [hCDR1, 19-mer peptide based on the CDR1 of the heavy chain of the human 16/6Id mAb]",activity of MMP-9 in pooled sera,MMP-9,down regulated
same,% inhibition of proliferation,"BALB/c-derived LNC; 50 μg/mouse s.c. in PBS, 16/6Id mAb 0.1 μg/well",98%
same,% inhibition of proliferation,"BALB/c-derived LNC; 50 μg/mouse s.c. in PBS, 16/6Id mAb 5 μg/well",73%
same,% inhibition of proliferation,"BALB/c-derived LNC; 50 μg/mouse s.c. in PBS, 16/6Id mAb 10 μg/well",64%
same,% inhibition of proliferation,"BALB/c-derived LNC; 300 μg/mouse s.c. in PBS, 16/6Id mAb 0.1 μg/well",47%
same,% inhibition of proliferation,"BALB/c-derived LNC; 300 μg/mouse s.c. in PBS, 16/6Id mAb 1 μg/well",66%
same,% inhibition of proliferation,"BALB/c-derived LNC; 300 μg/mouse s.c. in PBS, 16/6Id mAb 5 μg/well",76%
same,% inhibition of proliferation,"BALB/c-derived LNC; 300 μg/mouse s.c. in PBS, 16/6Id mAb 10 μg/well",62%
same,% Inhibition of the proliferation of BALB/c-derived LNC to the human 16/6Id mAb,"BALB/c-derived LNC; maximum % inhibition, 200 μg/mouse s.c. in PBS concomitant with priming",88%
same,production of INF-γ,[1]; FIG. 3A,down-regulated
same,secretion of TGF-β,[1]; FIG. 3B,up-regulated
same,secretion of IL-10,[1]; FIG. 3C,up-regulated

# Source: US7858738B2, “Synthetic human peptides and pharmaceutical compositions comprising them for the treatment of systemic lupus erythematosus” (Yeda Research and Development Co., Ltd., priority 2001, dated 2010)
